Data taken from patent publication US20160213647A1, “COMPOSITIONS AND METHODS FOR INHIBITING VIRAL INFECTION” (priority 2015, published 2016).
In brackets after ≈: the same amount, converted by molar mass. Where two headings read alike, the source gives them in different places.

Legend:
[1] = tested on: influenza A virus (IAV) strain PR8 (H1N1); format: cell-based
Human cytomegalovirus = assay: microbe, parasite or virus in culture; format: cell-based; settings: Human betaherpesvirus 5
Varicella-zoster virus = assay: microbe, parasite or virus in culture; format: cell-based; settings: Human alphaherpesvirus 3
BK virus = assay: microbe, parasite or virus in culture; format: cell-based; settings: Betapolyomavirus hominis
Norovirus = assay: microbe, parasite or virus in culture; format: cell-based
A/Udorn/72 (H3N2) = assay: microbe, parasite or virus in culture; format: cell-based; settings: Influenza A virus, H3N2, HEK-293T; read-out: EC50
A/Ca/07/09 (H1N1) = assay: microbe, parasite or virus in culture; format: cell-based; settings: Influenza A virus, H1N1, HEK-293T; read-out: EC50
[2] = tested on: arenavirus Tacaribe (TCRV), strain TRLV11573; assay: microbe, parasite or virus in culture; format: cell-based, Tacaribe virus; settings: Vero
[3] = tested on: arenavirus Tacaribe (TCRV), strain TRLV11573; assay: microbe, parasite or virus in culture; format: cell-based, Tacaribe virus; settings: A549
[4] = Cytotoxicity (CC50) in the in vitro viral screen; format: cell-based; settings: African green monkey, MA-104 cells; listed as Respiratory Syncytial Virus A2; visual
Source text: (§1) The results of an exemplary in vitro screen of the activity of AR-12 against various viruses is summarized below.

MA-104 = assay: Cytotoxicity (CC50) in the in vitro viral screen; format: cell-based; settings: listed as Respiratory Syncytial Virus A2; neutral red
Source text: as §1

RHDV isolate Ast/89 = assay: Treatment of rabbits infected with RHDV; format: in vivo, New Zealand white rabbits
Method: Nine-week-old New Zealand white rabbits in a climatized room at 21° C., with a 12 h light cycle in accordance with the experimental design shown in Table 9 and provided standard dry rabbit food and water ad libitum. For survival studies, 14 animals were injected intramuscularly with 2×10^4 hemagglutination units of RHDV isolate Ast/89 and six of them treated with AR-12 (25 mg/Kg body weight) at 0, 12, 24 and 36 hours post infection ([…]). Animals in those groups were left to die spontaneously.

DENV-2 = assay: Virus yield reduction assay by qRT-PCR in Vero cells; format: cell-based; settings: Dengue virus, DENV2, Vero, 48 h, read-out: Antiviral Activity IC50
DENV-3 = assay: as above; format: cell-based; settings: Dengue virus, DENV3, Vero, 48 h, read-out: Antiviral Activity IC50
DENV-4 = assay: as above; format: cell-based; settings: Dengue virus, DENV4, Vero, 48 h, read-out: Antiviral Activity IC50
Vero cells = settings: African green monkey
[5] = tested on: Junin virus strains Candid-1, XJC13 and IV4454; assay: in vitro; settings: African green monkey (Vero), human (A549)
in vitro = settings: African green monkey, CC50 (Neutral Red)
[6] = long term oral exposures up to 33 weeks; cited from earlier work
HIV-1 92HT599 = assay: microbe, parasite or virus in culture; settings: Human immunodeficiency virus 1, PBMC
HIV-2 CBL20 H9 = assay: microbe, parasite or virus in culture; settings: Human immunodeficiency virus 2, PBMC
JUNV strain IV4454 [7] = assay: microbe, parasite or virus in culture; settings: Mammarenavirus juninense, Vero, 48 h
JUNV strain IV4454 [8] = assay: microbe, parasite or virus in culture; settings: Mammarenavirus juninense, A549, 48 h
JUNV strain Candid-1 [9] = assay: microbe, parasite or virus in culture; settings: Mammarenavirus juninense, Vero, 48 h
JUNV strain Candid-1 [10] = assay: microbe, parasite or virus in culture; settings: Mammarenavirus juninense, A549, 48 h
three JUNV strains = assay: microbe, parasite or virus in culture; settings: Mammarenavirus juninense, read-out: EC50 values, range depending on the virus strain and the host cell
HIV-1 isolate MDR769 = assay: microbe, parasite or virus in culture; settings: Human immunodeficiency virus 1, PBMC
HIV-1 isolate MDR807 = assay: microbe, parasite or virus in culture; settings: Human immunodeficiency virus 1, PBMC
HIV-1 isolate A17 = assay: microbe, parasite or virus in culture; settings: Human immunodeficiency virus 1, PBMC
CHIKV 899 wild-type = assay: Chikungunya virus-induced cell death (CPE, MTS/PMS) assay in Vero A cells
[11] = 25 mg/Kg ip, after about 36 hours post infection, versus RHDV

SMILES: NCC(=O)Nc1ccc(-n2nc(C(F)(F)F)cc2-c2ccc3c(ccc4ccccc43)c2)cc1 [AR-12, 2-amino-N-(4-(5-(phenanthren-2-yl)-3-(trifluoromethyl)-1H-pyrazol-1-yl)phenyl)acetamide]
- viral protein production is reduced [1]: at least 50%
- EC50 (Human cytomegalovirus): > 2400 nM
- EC90 (Human cytomegalovirus): > 2400 nM
- EC50 (Varicella-zoster virus): 1150 nM
- EC90 (Varicella-zoster virus): 1680 nM
- EC50 (BK virus): > 2400 nM
- EC90 (BK virus): > 2400 nM
- EC50 (Norovirus): 718 nM
- EC90 (Norovirus): 8100 nM
- EC50 (A/Udorn/72 (H3N2)): 330 nM
- EC50 (A/Ca/07/09 (H1N1)): 370 nM
- EC50 [2]: 350 ± 30 nM
- EC50 [3]: 840 ± 20 nM
- CC50 [4]: 3.2 µg/mL (≈ 6.95 µM)
- CC50 (neutral red) (MA-104): 3.2 (visual), 3.2
- survival rates of infected rabbits increased (RHDV isolate Ast/89; 25 mg/Kg ip each 12 hours, at least about 24 hours post infection, p<0.05 Fisher test): about 20%
- level of marker of liver toxicity ALT (Alanine transaminase) (RHDV isolate Ast/89; [11]): decreased
- level of marker of liver toxicity AST (Aspartate transaminase) (RHDV isolate Ast/89; [11]): decreased
- level of marker of liver toxicity GGT (gamma-glutamyl transferase) (RHDV isolate Ast/89; [11]): decreased
- level of marker of liver toxicity LDH (lactate dehydrogenase) (RHDV isolate Ast/89; [11]): decreased
- IC50 (DENV-2): 800 nM
- IC50 (DENV-3): 600 nM
- IC50 (DENV-4): 890 nM
- IC50 (HIV-2 CDC 310319): 370 nM
- CC50 (neutral red) (Vero; listed as Pichinde Virus An 4763, neutral red): 2.8 µg/mL (≈ 6.08 µM)
- CC50 (visual) (Vero; listed as Pichinde Virus An 4763): 3.2 µg/mL (≈ 6.95 µM)
- CC50 (visual) (Vero; listed as Yellow Fever Virus 17D): 2.8 µg/mL (≈ 6.08 µM)
- MNTD (Vero cells): > 10 µM
- selectivity ratio [5]: 35.1 to 129
- CC50 (in vitro): 1.3 µg/mL (≈ 2.82 µM)
- safety profile [6]: acceptable safety profile
- IC50 (HIV-1 92HT599): 270 nM
- IC50 (HIV-2 CBL20 H9): 510 nM
- EC50 (JUNV strain IV4454 [7]): 510 ± 50 nM
- EC50 (JUNV strain IV4454 [8]): 550 ± 50 nM
- EC50 (JUNV strain Candid-1 [9]): < 150 nM
- EC50 (JUNV strain Candid-1 [10]): 150 ± 20 nM
- EC50 (three JUNV strains): 150 to 550 nM
- IC90 (HIV-1 isolate MDR769): 848 nM
- IC90 (HIV-1 isolate MDR769; read-out: IC50): 3820 nM
- IC90 (HIV-1 isolate MDR807): 905 nM
- IC90 (HIV-1 isolate MDR807; read-out: IC50): 2130 nM
- IC90 (HIV-1 isolate A17): 914 nM
- IC90 (HIV-1 isolate A17; read-out: IC50): 6640 nM
- selectivity index (CHIKV 899 wild-type; CC50/EC50, wild-type ChikV): 5.8
- EC50 (CHIKV 899 wild-type; Chikungunya virus, Vero, read-out: EC50 WT): 1100 ± 500 nM
